Source: patent US20220177538A1, “CO-AGONISTS AT GLP-1 AND GIP RECEPTORS SUITABLE FOR ORAL DELIVERY” (Novo Nordisk A/S, priority 2020, published 2022)
Where two headings read alike, the source gives them in different places. Starred links: 1 amine or outer side, 2 acyl side, 3 side chain; linkers in the order of their positions; H or OH if unused. Non-standard residues stand in square brackets, D forms with d. Residues, ends and D or L forms follow the SMILES beside them. Groups on a side chain read outwards from the residue. *: point of attachment. C18 diacid = O=C(O)CCCCCCCCCCCCCCCCC(=O)*; γGlu = O=C(O)[C@H](CCC(=O)[*:2])N[*:1]; εLys = N[C@@H](CCCCN[*:1])C(=O)[*:2]; Aib = CC(C)(N)C(=O)O

Key:
[1] = Pharmacokinetic study in minipigs after i.v. administration; settings: female, Göttingen, minipig, in vivo, iv
Experimental: The purpose of this example is to determine the half-life in vivo of the derivatives of the present invention after i.v. administration to minipigs, i.e. the prolongation of their time in the body and thereby their time of action. This is done in a pharmacokinetic (PK) study, where the terminal half-life of the derivative in question is determined. By terminal half-life is generally meant the period of time it takes to halve a certain plasma concentration, measured after the initial distribution phase.
Female Göttingen minipigs were obtained from Ellegaard Göttingen Minipigs (Dalmose, Denmark) approximately 7-14 months of age and weighing from approximately 16-35 kg were used in the studies. The minipigs were housed individually and fed restrictedly once daily with SDS minipig diet (Special Diets Services, Essex, UK).
After at 3 weeks of acclimatisation two permanent central venous catheters were implanted in vena cava caudalis in each animal. The animals were allowed 1 week recovery after the surgery, and were then used for repeated pharmacokinetic studies with a suitable wash-out period between successive derivative dosing.
The animals were fasted for approximately 18 hours before dosing and from 0 to 4 hours after dosing but had adlibitum access to water during the whole period.
The sodium salts of compounds of Examples 1 were dissolved to a concentration of 20-40 nmol/mL in a buffer containing 0.007% polysorbate 20, 50 mM sodium phosphate, 70 mM sodium chloride, pH 7.4. […]
Plasma was pipetted into Micronic tubes on dry ice and kept at −20° C. until analysed for plasma concentration of the compounds using ELISA, or a similar antibody-based assay, or LCMS. Individual plasma concentration-time profiles were analysed by a non-compartmental model in Phoenix WinNonLin ver. […] (Pharsight Inc., Mountain View, Calif., USA), and the resulting terminal half-lives (harmonic mean) determined.

human GLP-1 receptor = human GLP-1 receptor (Homo sapiens, UniProt P43220); experiment: In vitro functional potency, CRE luciferase reporter, whole BHK cells (hGLP-1R); format: cell-based; design: expressed in transfected cells; host or cells: BHK (parent line BHKTS13), clone BHK CRE luc2P hGLP-1R; settings: BHK CRE luc2P hGLP-1R cells
Sequence of human GLP-1 receptor (P43220 24-463): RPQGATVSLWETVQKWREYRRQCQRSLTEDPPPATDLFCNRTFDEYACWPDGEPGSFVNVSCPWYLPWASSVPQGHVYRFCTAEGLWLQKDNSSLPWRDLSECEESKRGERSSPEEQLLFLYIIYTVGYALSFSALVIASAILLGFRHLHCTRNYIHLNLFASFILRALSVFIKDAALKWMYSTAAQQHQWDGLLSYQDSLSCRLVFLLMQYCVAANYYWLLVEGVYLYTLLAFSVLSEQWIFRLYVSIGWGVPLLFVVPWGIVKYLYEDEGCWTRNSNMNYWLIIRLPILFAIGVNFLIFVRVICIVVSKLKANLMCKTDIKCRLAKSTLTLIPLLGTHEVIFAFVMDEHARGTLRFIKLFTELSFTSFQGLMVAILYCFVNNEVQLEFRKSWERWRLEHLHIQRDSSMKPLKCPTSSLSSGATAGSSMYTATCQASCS
Procedure, shortened: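 BHK CRE luc2P cells stably expressing hGIPR or hGLP-1R were seeded at 5000 cells/well overnight. They were treated 3 h at 37° C with a 12-point, 3.5-fold compound series in buffer with or without HSA, and luciferase luminescence was read. Values come from log(agonist)-response regression, averaging at least two replicates.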

[2] = 0% HSA, read-out: hGLP-1R, CRE Luc 0% HSA EC50
[3] = hGLP-1R, CRE Luc 1% HSA EC50, 1% HSA

| Structure (SMILES) | half-life [1] [h] | EC50 (human GLP-1 receptor; [2]) [nM] | EC50 (human GLP-1 receptor; [3]) [nM] | half-life ([1]; i.v. administration to minipigs, harmonic mean, read-out: Terminal half-life t1/2 (converted)) [h] | EC50 (human GLP-1 receptor; hGLP-1R, CRE Luc 0% HSA EC50, 0% HSA) [nM] |
| --- | --- | --- | --- | --- | --- |
| CC[C@H](C)[C@H](NC(=O)[C@H](Cc1ccccc1)NC(=O)[C@H](CCC(=O)O)NC(=O)[C@H](CCCNC(=N)N)NC(=O)[C@H](C)NC(=O)[C@H](C)NC(=O)[C@H](CCC(N)=O)NC(=O)[C@H](CCCCNC(=O)[C@@H](N)CCCCNC(=O)[C@@H](N)CCCCNC(=O)CC[C@H](NC(=O)CCCCCCCCCCCCCCCCC(=O)O)C(=O)O)NC(=O)[C@H](CCC(=O)O)NC(=O)[C@H](CC(C)C)NC(=O)[C@H](CC(C)C)NC(=O)[C@@H](NC(=O)[C@H](CO)NC(=O)[C@H](Cc1ccc(O)cc1)NC(=O)[C@H](CC(=O)O)NC(=O)[C@H](CO)NC(=O)[C@@H](NC(=O)[C@H](Cc1ccccc1)NC(=O)[C@@H](NC(=O)CNC(=O)[C@H](CCC(=O)O)NC(=O)C(C)(C)NC(=O)[C@@H](N)Cc1ccc(O)cc1)[C@@H](C)O)[C@@H](C)O)[C@@H](C)CC)C(=O)N[C@@H](CCC(=O)O)C(=O)N[C@@H](Cc1c[nH]c2ccccc12)C(=O)N[C@@H](CC(C)C)C(=O)N[C@@H](CC(C)C)C(=O)N[C@@H](C)C(=O)NCC(=O)NCC(=O)N1CCC[C@H]1C(=O)N[C@@H](CO)C(=O)N[C@@H](CO)C(=O)NCC(=O)N[C@@H](C)C(=O)N1CCC[C@H]1C(=O)N1CCC[C@H]1C(=O)N1CCC[C@H]1C(=O)N[C@@H](CO)C(=O)O [Compound 31] (H-Y[Aib]EGTFTSDYSILLEK([εLys-εLys-γGlu-C18 diacid])QAAREFIEWLLAGGPSSGAPPPS-OH) | 49 | 0.0042 | 0.202 | – | – |
| CC[C@H](C)[C@H](NC(=O)[C@H](Cc1ccccc1)NC(=O)[C@H](CCC(=O)O)NC(=O)[C@H](CCC(N)=O)NC(=O)[C@H](C)NC(=O)[C@H](C)NC(=O)[C@H](CCC(N)=O)NC(=O)[C@H](CCCCNC(=O)[C@@H](N)CCCCNC(=O)[C@@H](N)CCCCNC(=O)CC[C@H](NC(=O)CCCCCCCCCCCCCCCCC(=O)O)C(=O)O)NC(=O)[C@H](CCC(=O)O)NC(=O)[C@H](CC(C)C)NC(=O)[C@H](CC(C)C)NC(=O)[C@@H](NC(=O)[C@H](CO)NC(=O)[C@H](Cc1ccc(O)cc1)NC(=O)[C@H](CC(=O)O)NC(=O)[C@H](CO)NC(=O)[C@@H](NC(=O)[C@H](Cc1ccccc1)NC(=O)[C@@H](NC(=O)CNC(=O)[C@H](CCC(=O)O)NC(=O)C(C)(C)NC(=O)[C@@H](N)Cc1ccc(O)cc1)[C@@H](C)O)[C@@H](C)O)[C@@H](C)CC)C(=O)N[C@@H](CCC(=O)O)C(=O)N[C@@H](Cc1c[nH]c2ccccc12)C(=O)N[C@@H](CC(C)C)C(=O)N[C@@H](CC(C)C)C(=O)N[C@@H](C)C(=O)NCC(=O)NCC(=O)N1CCC[C@H]1C(=O)N[C@@H](CO)C(=O)N[C@@H](CO)C(=O)NCC(=O)N[C@@H](C)C(=O)N1CCC[C@H]1C(=O)N1CCC[C@H]1C(=O)N1CCC[C@H]1C(=O)N[C@@H](CO)C(=O)O [Compound 29] (H-Y[Aib]EGTFTSDYSILLEK([εLys-εLys-γGlu-C18 diacid])QAAQEFIEWLLAGGPSSGAPPPS-OH) | 68 | 0.0168 | 0.379 | – | – |
| CC[C@H](C)[C@H](NC(=O)[C@H](Cc1ccccc1)NC(=O)[C@H](CCC(=O)O)NC(=O)[C@H](CCCNC(=N)N)NC(=O)[C@H](C)NC(=O)[C@H](C)NC(=O)[C@H](CCC(N)=O)NC(=O)[C@H](CCCCNC(=O)[C@@H](N)CCCCNC(=O)[C@@H](N)CCCCNC(=O)CC[C@H](NC(=O)CCCCCCCCCCCCCCCCC(=O)O)C(=O)O)NC(=O)[C@H](CCC(=O)O)NC(=O)[C@H](CC(C)C)NC(=O)[C@H](CC(C)C)NC(=O)[C@@H](NC(=O)[C@H](CO)NC(=O)[C@H](Cc1ccc(O)cc1)NC(=O)[C@H](CC(=O)O)NC(=O)[C@H](CO)NC(=O)[C@@H](NC(=O)[C@H](Cc1ccccc1)NC(=O)[C@@H](NC(=O)CNC(=O)[C@H](CCC(=O)O)NC(=O)C(C)(C)NC(=O)[C@@H](N)Cc1ccc(O)cc1)[C@@H](C)O)[C@@H](C)O)[C@@H](C)CC)C(=O)N[C@@H](CCC(=O)O)C(=O)N[C@@H](Cc1c[nH]c2ccccc12)C(=O)N[C@@H](CC(C)C)C(=O)N[C@@H](CC(C)C)C(=O)N[C@@H](CCCNC(=N)N)C(=O)NCC(=O)NCC(=O)N1CCC[C@H]1C(=O)N[C@@H](CCC(=O)O)C(=O)N[C@@H](CO)C(=O)NCC(=O)N[C@@H](C)C(=O)N1CCC[C@H]1C(=O)N1CCC[C@H]1C(=O)N1CCC[C@H]1C(=O)N[C@@H](CO)C(=O)O [Compound 28] (H-Y[Aib]EGTFTSDYSILLEK([εLys-εLys-γGlu-C18 diacid])QAAREFIEWLLRGGPESGAPPPS-OH) | – | – | 0.139 | 35 | 0.0062 |
